{"source": "PubChem BioAssay (NCI)", "experiment_in_all_cases": "DTP human tumour cell line panel, 48 h", "key": {"NCI-H23 lung": {"system": "NCI-H23 lung"}, "OVCAR-4 ovarian": {"system": "OVCAR-4 ovarian"}, "NCI/ADR-RES ovarian": {"system": "NCI/ADR-RES ovarian"}, "SNB-19 CNS": {"system": "SNB-19 CNS"}, "HL-60(TB) leukemia": {"system": "HL-60(TB) leukemia"}, "RPMI-8226 leukemia": {"system": "RPMI-8226 leukemia"}, "UACC-257 melanoma": {"system": "UACC-257 melanoma"}, "MDA-N": {"system": "MDA-N"}, "CCRF-CEM leukemia": {"system": "CCRF-CEM leukemia"}, "LOX IMVI melanoma": {"system": "LOX IMVI melanoma"}, "HS 578T breast": {"system": "HS 578T breast"}, "SN12C renal": {"system": "SN12C renal"}, "786-0 renal": {"system": "786-0 renal"}, "OVCAR-5 ovarian": {"system": "OVCAR-5 ovarian"}, "SNB-75 CNS": {"system": "SNB-75 CNS"}, "HOP-92 NSCLC": {"system": "HOP-92 NSCLC"}, "EKVX NSCLC": {"system": "EKVX NSCLC"}, "NCI-H522 lung": {"system": "NCI-H522 lung"}, "TK-10 renal": {"system": "TK-10 renal"}, "HCC-2998 colon": {"system": "HCC-2998 colon"}, "HCT-116 colon": {"system": "HCT-116 colon"}, "RXF 393 renal": {"system": "RXF 393 renal"}, "DU-145 prostate": {"system": "DU-145 prostate"}, "IGROV1 ovarian": {"system": "IGROV1 ovarian"}, "K-562 leukemia": {"system": "K-562 leukemia"}, "OVCAR-3 ovarian": {"system": "OVCAR-3 ovarian"}, "MDA-MB-231 breast": {"system": "MDA-MB-231 breast"}, "MDA-MB-435": {"system": "MDA-MB-435"}, "OVCAR-8 ovarian": {"system": "OVCAR-8 ovarian"}, "NCI-H226 lung": {"system": "NCI-H226 lung"}, "ACHN renal": {"system": "ACHN renal"}, "BT-549 breast": {"system": "BT-549 breast"}, "SK-MEL-5 melanoma": {"system": "SK-MEL-5 melanoma"}, "SF-539 CNS": {"system": "SF-539 CNS"}, "A549 NSCLC": {"system": "A549 NSCLC"}, "SW-620 colon": {"system": "SW-620 colon"}, "U251 CNS": {"system": "U251 CNS"}, "MALME-3M melanoma": {"system": "MALME-3M melanoma"}, "T-47D breast": {"system": "T-47D breast"}, "HT29 colon": {"system": "HT29 colon"}, "SK-MEL-28 melanoma": {"system": "SK-MEL-28 melanoma"}, "SK-MEL-2 melanoma": {"system": "SK-MEL-2 melanoma"}, "SR leukemia": {"system": "SR leukemia"}, "HOP-62 NSCLC": {"system": "HOP-62 NSCLC"}, "M14 melanoma": {"system": "M14 melanoma"}, "SF-268 CNS": {"system": "SF-268 CNS"}, "SF-295 CNS": {"system": "SF-295 CNS"}, "MOLT-4 leukemia": {"system": "MOLT-4 leukemia"}, "NCI-H460 lung": {"system": "NCI-H460 lung"}, "KM12 colon": {"system": "KM12 colon"}, "A498 renal": {"system": "A498 renal"}, "PC-3 prostate": {"system": "PC-3 prostate"}, "COLO 205 colon": {"system": "COLO 205 colon"}, "MCF7 breast": {"system": "MCF7 breast"}, "SK-OV-3 ovarian": {"system": "SK-OV-3 ovarian"}, "UACC-62 melanoma": {"system": "UACC-62 melanoma"}, "HCT-15 colon": {"system": "HCT-15 colon"}}, "note": "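Following 48 hours of exposure in 96-well plates, responses at five concentrations were used to interpolate endpoints linearly. TGI denotes the concentration required for complete inhibition of growth.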", "data": [{"compound": "CC(C)(C)C1CCC2c3c([nH]c4ccccc34)C3C(=O)N(c4ccc([N+](=O)[O-])cc4)C(=O)C3C2C1", "note": "(configuration not stated)", "values": [{"measurement": "TGI", "setting": "NCI-H23 lung", "value": 33.7, "unit": "µM"}, {"measurement": "TGI", "setting": "OVCAR-4 ovarian", "value": 71.9, "unit": "µM"}, {"measurement": "TGI", "setting": "NCI/ADR-RES ovarian", "value": 41, "unit": "µM"}, {"measurement": "TGI", "setting": "SNB-19 CNS", "value": 67.5, "unit": "µM"}, {"measurement": "TGI", "setting": "HL-60(TB) leukemia", "value": 34.7, "unit": "µM"}, {"measurement": "TGI", "setting": "RPMI-8226 leukemia", "value": "> 100", "unit": "µM"}, {"measurement": "TGI", "setting": "UACC-257 melanoma", "value": "> 100", "unit": "µM"}, {"measurement": "TGI", "setting": "MDA-N", "value": "> 100", "unit": "µM"}, {"measurement": "TGI", "setting": "CCRF-CEM leukemia", "value": "> 100", "unit": "µM"}, {"measurement": "TGI", "setting": "LOX IMVI melanoma", "value": 20.8, "unit": "µM"}, {"measurement": "TGI", "setting": "HS 578T breast", "value": 39.3, "unit": "µM"}, {"measurement": "TGI", "setting": "SN12C renal", "value": 20.8, "unit": "µM"}, {"measurement": "TGI", "setting": "786-0 renal", "value": 18.9, "unit": "µM"}, {"measurement": "TGI", "setting": "OVCAR-5 ovarian", "value": "> 100", "unit": "µM"}, {"measurement": "TGI", "setting": "SNB-75 CNS", "value": 38.4, "unit": "µM"}, {"measurement": "TGI", "setting": "HOP-92 NSCLC", "value": 17.5, "unit": "µM"}, {"measurement": "TGI", "setting": "EKVX NSCLC", "value": "> 100", "unit": "µM"}, {"measurement": "TGI", "setting": "NCI-H522 lung", "value": 40.8, "unit": "µM"}, {"measurement": "TGI", "setting": "TK-10 renal", "value": 78.2, "unit": "µM"}, {"measurement": "TGI", "setting": "HCC-2998 colon", "value": 27.4, "unit": "µM"}, {"measurement": "TGI", "setting": "HCT-116 colon", "value": 22.6, "unit": "µM"}, {"measurement": "TGI", "setting": "RXF 393 renal", "value": 23.6, "unit": "µM"}, {"measurement": "TGI", "setting": "DU-145 prostate", "value": "> 100", "unit": "µM"}, {"measurement": "TGI", "setting": "IGROV1 ovarian", "value": "> 100", "unit": "µM"}, {"measurement": "TGI", "setting": "K-562 leukemia", "value": 55.3, "unit": "µM"}, {"measurement": "TGI", "setting": "OVCAR-3 ovarian", "value": 28.4, "unit": "µM"}, {"measurement": "TGI", "setting": "MDA-MB-231 breast", "value": 48.4, "unit": "µM"}, {"measurement": "TGI", "setting": "MDA-MB-435", "value": "> 100", "unit": "µM"}, {"measurement": "TGI", "setting": "OVCAR-8 ovarian", "value": "> 100", "unit": "µM"}, {"measurement": "TGI", "setting": "NCI-H226 lung", "value": 29, "unit": "µM"}, {"measurement": "TGI", "setting": "ACHN renal", "value": "> 100", "unit": "µM"}, {"measurement": "TGI", "setting": "BT-549 breast", "value": 36.9, "unit": "µM"}, {"measurement": "TGI", "setting": "SK-MEL-5 melanoma", "value": 25.6, "unit": "µM"}, {"measurement": "TGI", "setting": "SF-539 CNS", "value": 42.7, "unit": "µM"}, {"measurement": "TGI", "setting": "A549 NSCLC", "value": 62.1, "unit": "µM"}, {"measurement": "TGI", "setting": "SW-620 colon", "value": "> 100", "unit": "µM"}, {"measurement": "TGI", "setting": "U251 CNS", "value": 38.5, "unit": "µM"}, {"measurement": "TGI", "setting": "MALME-3M melanoma", "value": 43.7, "unit": "µM"}, {"measurement": "TGI", "setting": "T-47D breast", "value": "> 100", "unit": "µM"}, {"measurement": "TGI", "setting": "HT29 colon", "value": 19.2, "unit": "µM"}, {"measurement": "TGI", "setting": "SK-MEL-28 melanoma", "value": "> 100", "unit": "µM"}, {"measurement": "TGI", "setting": "SK-MEL-2 melanoma", "value": 29.3, "unit": "µM"}, {"measurement": "TGI", "setting": "SR leukemia", "value": 19.7, "unit": "µM"}, {"measurement": "TGI", "setting": "HOP-62 NSCLC", "value": 33.8, "unit": "µM"}, {"measurement": "TGI", "setting": "M14 melanoma", "value": 86.2, "unit": "µM"}, {"measurement": "TGI", "setting": "SF-268 CNS", "value": 34.8, "unit": "µM"}, {"measurement": "TGI", "setting": "SF-295 CNS", "value": 93.8, "unit": "µM"}, {"measurement": "TGI", "setting": "MOLT-4 leukemia", "value": 56.8, "unit": "µM"}, {"measurement": "TGI", "setting": "NCI-H460 lung", "value": "> 100", "unit": "µM"}, {"measurement": "TGI", "setting": "KM12 colon", "value": 35.7, "unit": "µM"}, {"measurement": "TGI", "setting": "A498 renal", "value": 79.4, "unit": "µM"}, {"measurement": "TGI", "setting": "PC-3 prostate", "value": "> 100", "unit": "µM"}, {"measurement": "TGI", "setting": "COLO 205 colon", "value": 21.1, "unit": "µM"}, {"measurement": "TGI", "setting": "MCF7 breast", "value": 17.9, "unit": "µM"}, {"measurement": "TGI", "setting": "SK-OV-3 ovarian", "value": 73.9, "unit": "µM"}, {"measurement": "TGI", "setting": "UACC-62 melanoma", "value": 39, "unit": "µM"}, {"measurement": "TGI", "setting": "HCT-15 colon", "value": "> 100", "unit": "µM"}]}]}
